This note sets out measurements from ChEMBL document CHEMBL4725446, “Development of a Raltegravir-based Photoaffinity-Labeled Probe for Human Immunodeficiency Virus-1 Integrase Capture” (ACS Med Chem Lett, 2020).

pIC50: −log10 of the molar value. Calls of active or inactive are those of the source. No cut-off for these calls is given here.

Broadly, the pIC50 is −log10 of the IC50, conventionally taken in molar units.

The nature of experiment [1]: Inhibition of HIV1 integrase assessed as reduction in LEDGF-independent integration pre-incubated for 1 hr before addition of DNA donor and acceptor substrate and measured after 90 mins by HTRF assay. Also on record: species or system Human immunodeficiency virus 1. In general terms: In TR-FRET formats the signal depends on donor and acceptor labels being close together.

For experiment [2], the system named is Human immunodeficiency virus 1. The experiment can be described thus: Binding affinity to HIV1 integrase assessed as induction of cross-linking at peptide region 164ELK166 at 7.5 to 25 uM in presence of UV illumination for 15 mins in presence of trypsin by LC-MS analysis. The conditions noted are these: dose microM 7.5-25, time 15.0 min.
Experiment [3] deals with Human immunodeficiency virus 1. The experiment can be described thus: Binding affinity to HIV1 integrase assessed as induction of enzyme molecular weight shift at 7.5 to 25 uM in presence of UV illumination for 15 mins by LC-MS analysis. The conditions noted are these: dose microM 7.5-25, time 15.0 min.
Experiment [4] relates to Human immunodeficiency virus 1. In words: Binding affinity to HIV1 integrase assessed as induction of cross-linking at peptide region 42EIVASCDK49 at 7.5 to 25 uM in presence of UV illumination for 15 mins in presence of trypsin by LC-MS analysis. The conditions noted are these: dose microM 7.5-25, time 15.0 min.
The subject of experiment [5] is Human immunodeficiency virus 1. In words: Binding affinity to HIV1 integrase assessed as conjugation of enzyme at 7.5 to 25 uM in presence of UV illumination for 15 mins by SDS-PAGE analysis based photoaffinity labelling method. The conditions noted are these: dose microM 7.5-25, time 15.0 min.

On to `Cc1nnc(C(=O)NC(C)(C)c2nc(C(=O)NCc3ccc(F)cc3)c(O)c(=O)n2C)o1` [RALTEGRAVIR], for which the pIC50 in experiment [1] was 7.24.

In the case of `CC(C)c1nc(C(=O)NCc2ccc(C(=O)c3ccccc3)cc2)c(O)c(=O)n1C`, the outcome in experiment [2], in experiment [3], in experiment [4] and in experiment [5] was Active. Also, the pIC50 in experiment [1] is 5.64.

Turning to `CC(C)c1nc(C(=O)O)c(O)c(=O)n1C`, the pIC50 in experiment [1] is 4.14.
